Assay results published in US20080070980A1, “Use Of Beta-Cryptoxanthin” (priority 2004, published 2008).

Legend:
[1] = test system: mouse myoblast cell line C2C12; assay: protein formation in C2C12 muscle cell cultures (BCA protein assay, Pico-green DNA assay); assay type: cell-based
Procedure: β-Cyptoxanthin enhances protein formation in muscle cell cultures
C2C12 cells from American Type Culture Collection (ATCC, CRL-1772).
The mouse myoblast cell line C2C12 was seeded into 6 cm^2 cell culture dishes at a density 2×10^5 cells/per well. Cells were cultivated in the presence of Dulbecco's […] (DMEM) containing a final concentration of 10% fetal calf serum, 4500 mg/L glucose, 100 IU/ml Penicillin & 100 μg/ml Streptomycin 2 mM L-Glutamine and 1 mM sodium pyruvate. One day post seeding, cells were supplemented with fresh medium containing β-cryptoxanthin with a final concentration of 0.25 μM or 1 μM or vehicle (tetrahydrofurane). β-cryptoxanthin stock solution was prepared in tetrahydrofurane and the solvent concentration in the media was kept constant at 0.14% for all treatment conditions. Cultivation in medium containing β-cryptoxanthin followed up for a total of 7 consecutive days. The medium was changed every second day. On each day, cells from one well per treatment group were scraped into 0.4 ml of a lysis buffer consisting of 20 mM Tris pH 7.5, NaCl 150 mM, EDTA 1 mM, Nonidet 1%, proteinase inhibitors (Roche Molecular Systems, Mannheim Germany) and sonicated.
Aliquots of 10 μl of this solution were used for total protein, and 2 μl for total DNA analysis. After centrifugation for 5 min at 10000 g, supernatants were used for protein and DNA analysis in the soluble fraction.
Protein was determined using the BCA Protein Assay Reagent (Pierce, Rockford, USA). The Pico-green Assay (Molecular Probes, Leiden, The Netherlands) was used for analysis of DNA content.
The amount of protein was calculated as μg/well or in relation to the amount of cells present in the well, as indirectly determined by the amount of DNA/well.

[2] = test system: genes involved in protein synthesis; assay: six weeks feeding study in SKH-1 mice, gene expression by GeneChip DNA microarray in kidney, liver, skin and spleen; assay type: in vivo; settings: 1200 ppm in feed with sodium cholate
Procedure: In a six weeks study, β-cryptoxanthin beadlets were mixed into the diet of SKH-1 mice to provide 1200 ppm β-cryptoxanthin in the feed. Further, 0.125 g of sodium cholate per 100 g of feed was added to facilitate the uptake of β-cryptoxanthin. The average β-cryptoxanthin intake was 6.5 mg pro mouse and pro day. After six weeks, the effect of this dose on the overall gene expression was studied. β-cryptoxanthin-mediated gene expression modifications were assessed by GeneChip® DNA microarray technology. Total RNA was extracted from kidney, liver, skin and spleen using the TRIzol® method according to the manufacturer protocol. Reverse Transcription was performed with 10 μg total RNA followed by second strand synthesis of cDNA. The cDNA was then transcribed into multiple cRNA copies and labelled by biotin-coupled nucleotides and fragmented. 10 μg of labelled and fragmented cRNA were hybridized on Affymetrix Mice Genome 430A microarrays as described in the GeneChip® Expression Analysis Technical Manual (Affymetrix, Oxford, UK). For each β-cryptoxanthin-treated tissue, five replicates were performed and compared to six replicates of untreated control mice. […] Subsequently, the microarrays were subjected to laser scanning and the hybridization signals were analyzed with Genedata Expressionist® and Phylosopher® software packages (Genedata, Basel, Switzerland). […]

[3] = 0.25 μM, 1 day in culture, C2C12
[4] = 0.25 μM, 2 days in culture, C2C12
[5] = 0.25 μM, 3 days in culture, C2C12
[6] = 0.25 μM, 4 days in culture, C2C12
[7] = 0.25 μM, 5 days in culture, C2C12
[8] = 0.25 μM, 6 days in culture, C2C12
[9] = 0.25 μM, 7 days in culture, C2C12

## CC1=C(/C=C/C(C)=C/C=C/C(C)=C/C=C/C=C(C)/C=C/C=C(C)/C=C/C2=C(C)C[C@@H](O)CC2(C)C)C(C)(C)CCC1 [β-cryptoxanthin]
[1]; [3]
  soluble protein μg/well: 536 μg/well
  total protein μg/well: 703.6 μg/well
  μg soluble protein/μg DNA: 227 μg soluble protein/μg DNA
[1]; [4]
  soluble protein μg/well: 592 μg/well
  total protein μg/well: 753.6 μg/well
  μg soluble protein/μg DNA: 244 μg soluble protein/μg DNA
[1]; [5]
  soluble protein μg/well: 626 μg/well
  total protein μg/well: 771.2 μg/well
  μg soluble protein/μg DNA: 274 μg soluble protein/μg DNA
[1]; [6]
  soluble protein μg/well: 915 μg/well
  total protein μg/well: 1136 μg/well
  μg soluble protein/μg DNA: 406 μg soluble protein/μg DNA
[1]; [7]
  soluble protein μg/well: 1091 μg/well
  total protein μg/well: 1314.4 μg/well
  μg soluble protein/μg DNA: 505 μg soluble protein/μg DNA
[1]; [8]
  soluble protein μg/well: 1267 μg/well
  total protein μg/well: 1411.2 μg/well
  μg soluble protein/μg DNA: 713 μg soluble protein/μg DNA
[1]; [9]
  soluble protein μg/well: 1284 μg/well
  total protein μg/well: 1257.2 μg/well
  μg soluble protein/μg DNA: 693 μg soluble protein/μg DNA
[1]; 0.25 μM, C2C12 (Table 3)
  change in soluble protein: an increase in soluble protein
[1]; 0.25 μM, C2C12 (Table 4)
  change in specific amount of protein/μg DNA: an increase in the specific amount of protein/μg DNA
[1]; 0.25 μM, C2C12, versus vehicle (Table 2)
  increase in total protein: approx. 1.4 fold
[1]; 1 μM, 1 day in culture, C2C12
  soluble protein μg/well: 574 μg/well
  total protein μg/well: 750 μg/well
  μg soluble protein/μg DNA: 246 μg soluble protein/μg DNA
[1]; 1 μM, 2 days in culture, C2C12
  soluble protein μg/well: 547 μg/well
  total protein μg/well: 757.2 μg/well
  μg soluble protein/μg DNA: 231 μg soluble protein/μg DNA
[1]; 1 μM, 3 days in culture, C2C12
  soluble protein μg/well: 609 μg/well
  total protein μg/well: 750 μg/well
  μg soluble protein/μg DNA: 265 μg soluble protein/μg DNA
[1]; 1 μM, 4 days in culture, C2C12
  soluble protein μg/well: 857 μg/well
  μg soluble protein/μg DNA: 382 μg soluble protein/μg DNA
[1]; 1 μM, 5 days in culture, C2C12
  soluble protein μg/well: 1126 μg/well
  total protein μg/well: 1236 μg/well
  μg soluble protein/μg DNA: 539 μg soluble protein/μg DNA
[1]; 1 μM, 6 days in culture, C2C12
  soluble protein μg/well: 1146 μg/well
  total protein μg/well: 1232.4 μg/well
  μg soluble protein/μg DNA: 624 μg soluble protein/μg DNA
[1]; 1 μM, 7 days in culture, C2C12
  soluble protein μg/well: 1118 μg/well
  total protein μg/well: 1193.2 μg/well
  μg soluble protein/μg DNA: 644 μg soluble protein/μg DNA
[1]; 1 μM, C2C12
  effect on protein formation at higher concentration: plateaued
[2]
  expression of genes involved in protein synthesis in skin, liver, kidney and spleen: up-regulated
